Measurements taken from US7381401B2, “T cell anergy is reversed by active Ras and regulated by diacylglycerol kinase” (The University of Chicago, priority 2004, dated 2008).

Columns and labels:
[1] = system: anergic Th1 cells; assay: Toxicity of the DGK inhibitor to anergic Th1 cells; format: cell-based, mouse; settings: higher concentrations (data not shown)
From the text: If increased DGK activity is contributing to diminished Ras activation and IL-2 production in the anergic state, then inhibition of this enzyme should result in increased IL-2 production by anergic cells. To explore this possibility, the pharmacologic inhibitor R59022 was employed (Jiang et al., 2000). […] Approximately 40% of this IL-2 production was recovered by stimulation with PMA+Ionomycin, arguing that that proportion was mediated by a proximal signaling defect.

[2] = system: anergic CAR Tg Th1 cells; assay: IL-2 production by anergic CAR Tg Th1 cells (ELISA); format: cell-based, mouse; settings: stimulated with anti-CD3/anti-CD28 beads
From the text: Induction of T cell anergy. […] Adenoviral transduction of […] cells. […] T cell activation.

[3] = system: anergic Th1 cells; assay: IL-2 production by anergic Th1 clone pGL10 (ELISA); format: cell-based, mouse
From the text: (§1) Induction of T cell anergy.

[4] = molecular target: DGKα (Homo sapiens, UniProt P23743); settings: cited from earlier work
[5] = system: CAR transgenic Th1 clones; assay: IL-2 production by CAR transgenic Th1 clones overexpressing DGK isoforms; format: cell-based, mouse
Procedure: Adenoviral vectors. The CA H-Ras mutant Ras61L cDNA was provided by Dr. F. Fitch (University of Chicago). Construction of recombinant adenoviral vectors was performed using a two-cosmid system protocol described by Wang et al. (2000). Briefly, a gene expression unit containing a human ubiquitin promoter and either HRas61L, GFP, DGKα, kinase-dead DGKα, DGKζ, or no cDNA was inserted into a left-end plasmid, pLEP. pLEPUb-Ras61L and the right-end-plasmid, pREP, containing the E-deleted adenovirus type 2 (Ad2) genome, were digested, ligated and resulting cosmids were packaged into lambda phages. The DGKα kinase-dead DGKα, and DGKζ inserts also have a myc epitope tag. Competent bacteria were transduced with lambda phages and double selection of growing colonies was performed on Amp/Tet plates. Recombinant adenoviruses were then generated by transfection of 293 cells with purified, linearized adenoviral vector DNA. High titer stock solutions were obtained by large-scale infection of 293 cells followed by cesium chloride purification of complete viral particles. Plaque forming units (pfu) of virus preparations were determined by TCID 50 method (AdEasy Vector Systems Manual, Quantum Biotechnologies, Canada). Working solutions of adenoviral vectors were diluted in storage buffer (Nyberg-Hoffman and Aguilar-Cordova, 1999), and stored at −80° C. until needed. […]

[6] = system: Egr2 mRNA; assay: Semi-quantitative RT-PCR of Egr2 mRNA in pGL10 cells; format: cell-based, mouse; settings: pGL10 cells treated with ionomycin
Procedure: as §1
(§2) RT-PCR. Total RNA was extracted using Trizol, and cDNA was generated using oligo-dT as a primer. PCR™ was done with titrated doses of cDNA using primers specific for the following genes: […]
(§3) Between 36 and 39 cycles were performed at an annealing temperature of 55° C. Products were visualized on ethidium bromide-stained 1% agarose gels.

[7] = system: DGK-ζ mRNA; assay: Semi-quantitative RT-PCR of DGK-ζ mRNA in pGL10 cells; format: cell-based, mouse; settings: pGL10 cells treated with ionomycin
Procedure: as §1, §2, §3

Sequence of DGKα (P23743 whole entry, species assumed, canonical isoform): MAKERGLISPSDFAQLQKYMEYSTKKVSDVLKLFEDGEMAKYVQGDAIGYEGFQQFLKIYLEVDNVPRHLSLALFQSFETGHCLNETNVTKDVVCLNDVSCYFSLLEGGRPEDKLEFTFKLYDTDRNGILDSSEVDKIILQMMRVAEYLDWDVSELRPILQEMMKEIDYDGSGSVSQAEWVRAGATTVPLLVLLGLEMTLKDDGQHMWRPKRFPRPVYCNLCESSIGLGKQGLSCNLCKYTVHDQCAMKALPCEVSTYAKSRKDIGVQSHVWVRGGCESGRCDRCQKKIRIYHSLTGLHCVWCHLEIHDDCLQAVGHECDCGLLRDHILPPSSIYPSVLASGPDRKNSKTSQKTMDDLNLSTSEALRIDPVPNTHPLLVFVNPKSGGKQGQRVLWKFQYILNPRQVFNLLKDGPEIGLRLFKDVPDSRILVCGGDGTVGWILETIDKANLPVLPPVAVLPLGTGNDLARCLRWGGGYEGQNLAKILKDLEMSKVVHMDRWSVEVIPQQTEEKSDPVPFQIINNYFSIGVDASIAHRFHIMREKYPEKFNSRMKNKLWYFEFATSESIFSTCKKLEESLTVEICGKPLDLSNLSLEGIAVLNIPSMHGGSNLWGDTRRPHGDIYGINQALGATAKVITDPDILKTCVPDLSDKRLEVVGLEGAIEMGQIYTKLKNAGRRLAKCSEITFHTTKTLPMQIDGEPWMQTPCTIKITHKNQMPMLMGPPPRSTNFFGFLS

Cc1nc2sccn2c(=O)c1CCN1CCC(=C(c2ccccc2)c2ccc(F)cc2)CC1 [R59022, 6-[2-(4-[(4-fluorophenyl)phenyl-methylene]-1-piperidinyl)ethyl]-7-methyl-5H-thiazolo[3,2-]pyrimidine-5-one]
toxicity to the cells [1]: toxic to the cells | IL-2 production [2]: partially restored IL-2 production | recovery of IL-2 production ([3]; anergic Th1 clone pGL10 stimulated with anti-CD3+anti-CD28, increasing concentrations, 25 min pre-incubation, ELISA): significant recovery of IL-2 production in a dose-dependent fashion | cytokine release by the inhibitor alone ([3]; anergic cells, no anti-CD3/anti-CD28 stimulation (data not shown)): did not induce detectable cytokine release | DGK isoform preference [4]: preferentially inhibits DGKα

CCCCCCCCCCCCCC(=O)O[C@@H]1[C@@H](C)[C@@]2(O)[C@@H](C=C(CO)C[C@]3(O)C(=O)C(C)=C[C@@H]23)[C@@H]2C(C)(C)[C@]12OC(C)=O [PMA]
IL-2 production on addition of exogenous PMA ([5]; cells transduced to express DGKα): restored IL-2 production | IL-2 production on addition of exogenous PMA ([5]; cells transduced to express DGKζ): restored IL-2 production

C[C@H](CCC(=O)O)C[C@H](C)C[C@H](C)C(=O)/C=C(\O)[C@H](C)C[C@H](C)C/C=C/[C@@H](C)[C@@H](O)[C@@H](C)[C@@H](O)C[C@@H]1CC[C@@](C)([C@H]2CC[C@@](C)([C@@H](C)O)O2)O1 [ionomycin]
Egr2 mRNA [6]: only a minimal increase | expression of DGK-ζ mRNA [7]: upregulated
